# Assay results as given in patent US5436254A, “Carbostyril derivatives” (Otsuka Pharmaceutical Company, Ltd., priority 1989, dated 1995).
# Biological target: V1 receptor (Rattus norvegicus, UniProt P30560)
# Test: biochemical
# Type: binding
# Settings: not given
# Sequence of V1 receptor (P30560 whole entry): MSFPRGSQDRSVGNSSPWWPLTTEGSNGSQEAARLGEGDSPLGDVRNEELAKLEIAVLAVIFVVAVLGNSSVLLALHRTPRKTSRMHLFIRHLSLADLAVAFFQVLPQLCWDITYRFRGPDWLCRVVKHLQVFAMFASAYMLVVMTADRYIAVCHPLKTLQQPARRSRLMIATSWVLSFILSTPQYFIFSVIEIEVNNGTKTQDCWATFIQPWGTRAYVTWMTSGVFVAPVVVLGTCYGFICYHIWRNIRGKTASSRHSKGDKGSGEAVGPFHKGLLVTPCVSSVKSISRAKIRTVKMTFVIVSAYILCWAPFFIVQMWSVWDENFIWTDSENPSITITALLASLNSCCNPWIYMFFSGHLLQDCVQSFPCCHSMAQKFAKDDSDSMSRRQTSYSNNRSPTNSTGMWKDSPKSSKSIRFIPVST
row,Structure (SMILES),IC50 [nM]
1,"COc1ccc(C(=O)N2CCC(N3C(=O)CCc4ccccc43)CC2)c(OC)c1 [Example 47, 1-[1-(2,4-Dimethoxybenzoyl)-4-piperidinyl]-3,4-dihydrocarbostyril]",100
2,"O=C(c1ccc(C(F)(F)F)cc1)N1CCC(N2C(=O)CCc3ccccc32)CC1 [Example 106, 1-[1-(4-Trifluoromethylbenzoyl)-4-piperidinyl]-3,4-dihydrocarbostyril]",700
3,"COCCOc1cc(OC)ccc1C(=O)N1CCC(N2C(=O)CCc3ccccc32)CC1 [Example 70, 1-{1-[2-(2-Methoxyethoxy)-4-methoxybenzoyl]-4-piperidinyl}-3,4-dihydrocarbostyril]",320
4,"O=C(c1ccc(OCCCCCS(=O)(=O)c2ncccn2)cc1)N1CCC(N2C(=O)CCc3ccccc32)CC1 [Example 281, 1-(1-(4-[5-(2-Pyrimidylsulfonyl)pentyloxy]benzoyl)-4-piperidinyl}-3,4-dihydrocarbostyril]",54
5,"CCSCCCOc1ccc(C(=O)N2CCC(N3C(=O)CCc4ccccc43)CC2)cc1 [Example 95, 1-{1-[4-(3-Ethylthiopropoxy)benzoyl]-4-piperidinyl}-3,4-dihydrocarbostyril]",960
6,"CS(=O)(=O)N1CCN(CCCCOc2ccc(C(=O)N3CCC(N4C(=O)CCc5ccccc54)CC3)cc2)CC1 [Example 159, 1-{1-[4-[4-(4-Methylsulfonyl-1-piperazinyl)butoxy]benzoyl]-4-piperidinyl}-3,4-dihydrocarbostyril]",98
7,"O=C(c1ccc(OCCCC[S+]([O-])c2nc3ccccc3[nH]2)cc1)N1CCC(N2C(=O)CCc3ccccc32)CC1 (centres unmarked) [Example 194, 1-{1-[4-(4-(Benzimidazol-2-yl)sulfinylbutoxy)benzoyl]-4-piperidinyl}-3,4-dihydrocarbostyril]",350
8,"O=C(c1ccc(OCCCCN2CCN(Cc3ccccc3)CC2)cc1)N1CCC(N2C(=O)CCc3ccccc32)CC1 [Example 156, 1-{1-[4-[(4-Benzyl-1-piperazinyl)butoxy]benzoyl]-4-piperidinyl}-3,4-dihydrocarbostyril]",180
9,"O=C(c1ccc(OC2CCCCC2)cc1)N1CCC(N2C(=O)CCc3ccccc32)CC1 [Example 99, 1-[1-(4-Cyclohexyloxybenzoyl)-4-piperidinyl]3,4-dihydrocarbostyril]",960
10,"CC(=O)N1CCN(CCCOc2ccc(C(=O)N3CCC(N4C(=O)CCc5ccccc54)CC3)cc2)CC1 [Example 134, 1-[1-{4-[3-(4-Acetyl-1-piperazinyl)propoxy]-benzoyl}-4-piperidinyl]-3,4-dihydrocarbostyril]",160
11,"CCNC(=O)NCCCOc1ccc(C(=O)N2CCC(N3C(=O)CCc4ccccc43)CC2)cc1 [Example 198, 1-{1-[4-(3-Ethylaminocarbonylaminopropoxy)benzoyl]-4-piperidinyl}-3,4-dihydrocarbostyril]",320
12,"COc1ccc(C(=O)N2CCC(N3C(=O)CCc4ccccc43)CC2)c(NC(=O)OCc2ccccc2)c1 [Example 103, 1-[1-(4-Methoxy-2-benzyloxycarbonylaminobenzoyl)-4-piperidinyl]-3,4-dihydrocarbostyril]",700
13,"O=C(OCCCCOc1ccc(C(=O)N2CCC(N3C(=O)CCc4ccccc43)CC2)cc1)N1CCN(Cc2ccccc2)CC1 [Example 161, 1-{1-[4-[4-(4-Benzyl-1-piperazinyl)carbonyloxybutoxy]benzoyl]-4-piperidinyl}-3,4-dihydrocarbostyril]",450
14,"O=C(c1ccc(OCCCCCCN2CCCC2)cc1)N1CCC(N2C(=O)CCc3ccccc32)CC1 [Example 214, 1-{1-[4-(6-(1-Pyrrolidinyl)hexyloxy)benzoyl]-4-piperidinyl}-3,4-dihydrocarbostyril.]",58
15,"C=CCN(C)CCCCCOc1ccc(C(=O)N2CCC(N3C(=O)CCc4ccccc43)CC2)cc1 [Example 245, 1-{1-(4-[5-(N-Allyl-N-methylamino)pentyloxy]benzoyl)-4-piperidinyl}-3,4-dihydrocarbostyril]",54
16,"CN(CCO)CC(O)CCCCOc1ccc(C(=O)N2CCC(N3C(=O)CCc4ccccc43)CC2)cc1 (centres unmarked) [Example 204, 1-{1-[4-(5-Hydroxy-6-[N-(2-hydroxyethyl)-N-methylamino]hexyloxy)benzoyl]-4-piperidinyl}-3,4-dihydrocarbostyril]",59
17,"CN(C)CCCOc1ccc(C(=O)N2CCC(N3C(=O)CCc4ccccc43)CC2)cc1 [Example 17, 1-{1-[4-(3-Dimethylaminopropoxy)benzoyl]-4-piperidinyl}-3,4-dihydrocarbostyril]",430
18,"CCOC(=O)CNC(=O)CCCCCOc1ccc(C(=O)N2CCC(N3C(=O)CCc4ccccc43)CC2)cc1 [Example 13, 1-{1-[4-(5-Ethoxycarbonylmethylaminocarbonylpentyloxy)benzoyl]-4-piperidinyl}-3,4-dihydrocarbostyril]",280
19,"CN(CCc1ccccn1)CC(O)CCCCOc1ccc(C(=O)N2CCC(N3C(=O)CCc4ccccc43)CC2)cc1 (centres unmarked) [Example 300, 1-{1-(4-[5-Hydroxy-6-(N-methyl-N-(2-(2-pyridyl)ethyl)amino)hexyloxy]benzoyl]-4-piperidinyl}-3,4-dihydrocarbostyril]",34

# Tested on: increase of diastolic pressure caused by Arg-vasopressin
# Test: Anti-vasopressor activity in vivo (pith rat, increase of diastolic pressure by Arg-vasopressin)
# Parameters: species or system male SD rat
# Settings: iv, read-out: ED50 (dose required to reduce the increase of diastolic pressure caused by Arg-vasopressin to 50 % of its control value)
row,Structure (SMILES),ED50 [mg/kg]
1,"COc1ccc(C(=O)N2CCC(N3C(=O)CCc4ccccc43)CC2)c(OC)c1 [Example 47, 1-[1-(2,4-Dimethoxybenzoyl)-4-piperidinyl]-3,4-dihydrocarbostyril]",0.4
